Source: patent publication US10125121B2, “FYN kinase inhibitors” (ROTTAPHARM BIOTECH S.R.L., priority 2015, dated 2018)
Where two headings read alike, the source gives them in different places.

Tests used:
[1] = system: NF-kB activation in JB6 CI 41-5a (P+) cells; assay: Gene reporter (GR) assay, NF-kB luciferase after TNFα stimulation; type: cell-based, murine; details: 1 h pre-treatment, 2 ng/ml TNFα for 4 h, read-out: IC50(nM) GR Inhibition
Description: To determine if the compounds of the invention were active also in a cellular model, a gene reporter assay was established in a cell line (JB6 CI 41-5a (P+)) know to activate Fyn kinase via an inflammatory stimuli (TNFα). GR assay measures the activation of the nuclear transcription factor NF-kB, situated down-stream the Fyn activation pathway. Products active in this analysis has to penetrate in the cell and inhibit the activation pathway of NF-kB.
The murine epithelial cell line JB6 CI 41-5a (P+) (ATCC® Cat. # CRL-2010) was stably transfected with the pGL4.32[luc2P/NFkB-RE/Hygro] vector (Promega). Clonal selection was achieved by limiting dilution in MEM (+Earle's BSS+1.5 g/l sodium bicarbonate+0.1 mM NEAA)+GlutaMAX™-I, +1 mM sodium pyruvate, +5% FBS+80 μg/ml Hygromycin B. The clones were tested for their response to TNFα stimulus. The obtained transfected cells (JB6(P+) NFkB-RE-luc2P T3-C10) contained a firefly luciferase gene (luc2P) under the control of minimal TATA promoter with multiple Nuclear Factor-kB response elements (NFkB-REs). These NFkB-REs are DNA binding sequences for the NF-kB transcription factor.
JB6(P+) NFkB-RE-luc2P T3-C10 cells were used for the analysis of NF-kB activity modulation, after TNFα stimulation, by Fyn-inhibitors (Hwang et al.; Biochem. Pharmacol. 2009, 77 (7):1213-22).
6000 cells/well were plated in a 96× well plate. After 24 h new medium without antibiotics was given. After further 24 h the cells were pre-treated with the different compounds for 1 h and then stimulated with 2 ng/ml TNFα for 4 h. In each experiments two positive standards were always used, and each tested condition was analyzed in quadruplicate.
The luciferase analysis was performed with ONE-Glo™+ToxLuciferase Reporter and Cell Viability Assay kit (Promega). This assay combined luciferase assay chemistry with a cell viability marker to better understand reporter gene expression in the context of cell health. The assay uses a two-step process. The first part of the assay was a non-lytic fluorescence assay (CellTiter-Fluor™ Cell Viability Assay) that measured the relative number of live cells in a culture population, as it measures a conserved and constitutive protease activity within live cells. The live-cell protease activity was restricted to intact viable cells and was measured using a fluorogenic, cell-permeant peptide substrate (glycyl-phenylalanyl-aminofluorocoumarin; GF-AFC). The generated fluorescent signal, proportional to the number of living cells, was measured with EnVision microplate reader (PerkinElmer) using an excitation wavelength of 400 nm and emission wavelength of 500 nm.
The second part of the assay uses the ONE-Glo™ Luciferase Assay System to quantify firefly luciferase reporter gene expression. The ONE-Glo™ Assay contained a fluoro-luciferin substrate, more tolerant to sample components than standard luciferase assay reagents. Luminescence was measured with EnVision microplate reader (PerkinElmer).
Compounds of Formula (I) were tested for their capacity to penetrate into the cell and inhibit the activation pathway of NF-kB.

[2] = system: mechanical hyperalgesia in meniscal tear osteoarthritis; assay: Surgically induced meniscal tear osteoarthritis in the rat (MMT); type: in vivo; details: for Pain threshold / Pain threshold: MPE (%): 10 mg/kg daily orally
Description: Male Sprague Dawley rats (Charles River) approximately 350 g body weight were used. Rats were anesthetized using 2.5% isoflurane in oxygen with a flow rate of 1 I per minute. The right hind leg was shaved and surgically prepared. The medial collateral ligament was exposed and transected. The meniscus was grasped with a hemostat and reflected proximally toward the femur. The meniscus was cut through its full thickness at the narrowest point. The connective tissue layer and the skin were closed with coated Vicryl 8-0 and 4-0 silk sutures, respectively. Sham operated animals underwent an identical procedure with the exception that the medial collateral ligament was exposed but not transected. After a recovery period of 2 weeks, mechanical hyperalgesia was evaluated for the following 4 weeks, once a week, before and 90 minutes after drugs administration. Pharmacological oral treatment was performed for 28 days, starting from 14 days after surgery. After 6 weeks from surgery, rats (ten animals per group) were sacrificed and the ipsilateral knee was removed for histopathological analysis.
The maximum possible effect (MPE %) was calculated by the following formula: 100*(Compound−Vehicle)/(Sham−Vehicle)

JB6 CI 41-5a (P+) = assay: Toxicity in JB6 cells (MTT method); type: cell-based, murine; details: 3 μmolar, 24 hours of incubation
Experimental: Cell toxicity analysis in JB6 CI 41-5a (P+) is important to determine if the results obtained in GR assay are due to the pharmacological effect or to a toxicity effect of the products.
The murine epithelial cell line JB6 CI 41-5a (P+) (ATCC® Cat. # CRL-2010) was used to analyze the products cell toxicity by MTT method. 10^4 cells/well were plated in a 96× well plate MEM 5%. 48 h after plating the cells were pre-treated with the different compounds and positive standards for 1 h and then stimulated with TNFα (to simulate the same experimental conditions used in the gene reporter assay) for 4 and 24 h. At the end of the incubation time, the medium was removed and was substituted with a mixture 10:1 of MEM 5% MTT (2 mg/ml) for 1 h at 37° C. in the cell incubator. MTT is a tetrazolium salt especially useful for assaying the quantification of living metabolically active cells; it works by being metabolized by mitochondrial dehydrogenases to form a formazan dye (salt). After this incubation the supernatant was removed and the precipitated salt was dissolved with 100 μl of DMSO. The plate was then read at 540 nm. 100 μl of DMSO alone (without cells) were used as a blank, that was subtracted from the measure of each sample.

Pharmacokinetics in rats = type: in vivo, rat; details: 1 mg/kg orally
CFA induced hyperalgesia = assay: CFA-induced inflammatory pain in rats (Randall-Selitto paw withdrawal threshold); type: in vivo; details: rat, 24 h after administration
Experimental: Male Wistar rats were injected into the right hind footpad with 300 μg of Mycobacterium tuberculosis in 100 μL of liquid paraffin (Complete Freund's Adjuvant; CFA). Seventy-two hours later, compounds 2 and 26 were administered subcutaneously and 24 h after the administration, the response to noxious mechanical stimulation was assessed by measuring paw withdrawal threshold (PWT) with an analgesimeter of the Randall-Selitto type. Animals were gently restrained, and steadily increasing pressure was applied to the dorsal surface of both the ipsi-lateral (CFA-treated) and the contra-lateral paw via a dome-shaped plastic tip.
100% protection means that the animal treated with the compound and CFA can tolerate the same stimulus (weight) as the control animal which has not received CFA treatment.

[3] = molecular target: active FYN (human recombinant, 62.7 kDa) (Homo sapiens, UniProt P06241); assay: In vitro kinase assay (Z′-LYTE FRET); type: biochemical; details: read-out: IC50(nM) FYN INHIBITION
Chain of active FYN (human recombinant, 62.7 kDa) (P06241 whole entry): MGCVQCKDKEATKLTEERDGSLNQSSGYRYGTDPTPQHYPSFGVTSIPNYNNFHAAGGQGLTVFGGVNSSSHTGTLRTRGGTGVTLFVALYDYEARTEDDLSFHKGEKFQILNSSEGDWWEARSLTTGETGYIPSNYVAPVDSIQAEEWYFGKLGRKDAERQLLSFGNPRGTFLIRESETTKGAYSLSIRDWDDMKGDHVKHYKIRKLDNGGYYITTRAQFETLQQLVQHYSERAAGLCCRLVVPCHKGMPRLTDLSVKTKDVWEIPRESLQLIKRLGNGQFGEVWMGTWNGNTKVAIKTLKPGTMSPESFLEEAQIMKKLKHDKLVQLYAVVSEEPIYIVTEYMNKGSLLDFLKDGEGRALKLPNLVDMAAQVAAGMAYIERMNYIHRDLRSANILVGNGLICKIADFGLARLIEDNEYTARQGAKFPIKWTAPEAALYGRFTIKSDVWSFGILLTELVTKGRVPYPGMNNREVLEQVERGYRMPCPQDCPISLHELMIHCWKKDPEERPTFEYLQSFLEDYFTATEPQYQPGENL
Experimental: Assays to determine the kinase inhibitory activity of compounds were performed using an automatic liquid handling device (Microlab STAR Hamilton) and Z′-LYTE™ Kinase Assay Platform, a Fluorescence Resonance Energy Transfer (FRET)-based assay platform compatible with high-throughput screening (HTS) applications. The assay employs a fluorescence-based, coupled-enzyme format and utilizes the differential sensitivity of phosphorylated and non-phosphorylated peptides to proteolytic cleavage.
All reagents were diluted in reaction buffer and the kinase reaction was carried out in a total volume of 10 μl, for 60 minutes at 25° C. The 0% Phosphorylation (i.e. no ATP) and 100% Phosphorylation (i.e. synthetically phosphorylated peptide supplied) Assay Controls, included in each plate, allowed to calculate the percent phosphorylation achieved in the specific reaction well. The 0% Inhibition and 0% Phosphorylation (i.e. 100% Inhibition) Controls define the dynamic range in the screen. At the end of incubation, a secondary reaction (the Development Reaction) started by adding 5 μl of Development Reagent, containing a site-specific protease that recognizes and cleaves non-phosphorylated peptides, and was interrupted after 60 minutes with 5 μl/sample of Stop Reagent.
The compounds were tested in a range of concentrations 10^−6-10^−9 M.
Results are expressed as percentage of inhibition and the IC50 values were calculated by non-linear curve fitting using GraphPad™ Prism software.

Compound | IC50 [1] | Pain threshold ([2]; day 14 post surgery) | Pain threshold ([2]; day 21 post surgery) | Pain threshold: MPE (%) ([2]; day 21 post surgery) | Pain threshold ([2]; day 28 post surgery) | Pain threshold: MPE (%) ([2]; day 28 post surgery) | Pain threshold ([2]; day 35 post surgery) | Pain threshold: MPE (%) ([2]; day 35 post surgery) | Pain threshold ([2]; day 42 post surgery) | Pain threshold: MPE (%) ([2]; day 42 post surgery) | tolerability ([2]; rat, oral, doses higher than 10 mg/kg) | percent residual cell vitality (JB6 CI 41-5a (P+)) | AUC (0-24 h) (Pharmacokinetics in rats) | % protective effect vs. CFA induced hyperalgesia (CFA induced hyperalgesia; 3) | % protective effect vs. CFA induced hyperalgesia (CFA induced hyperalgesia; 10) | IC50 ([1]; Mus musculus) | IC50 [3]
CC(C)(C)n1nc(-c2ccc(Cl)cc2)c2c(N)ncnc21 [PP2, reference compound] | 505 nM | 285 g | 278 g | 1.8% | 267 g | 0% | 262 g | 0% | 253 g | 0% | not tolerated | 18% | 160 ng·h/mL | 45% | 47% |  | 
O=C(Nc1ccc(CN2CCN(c3nccc(Nc4cc(C5CC5)[nH]n4)n3)CC2)cc1)c1ncccc1C(F)(F)F [Compound 26, N-(4-((4-(4-((5-cyclopropyl-1H-pyrazol-3-yl)amino)pyrimidin-2-yl)piperazin-1-yl)methyl)phenyl)-3-(trifluoromethyl)-picolinamide] |  |  |  |  |  |  |  |  |  |  |  |  |  | 100% |  | 247 nM | 9 nM
O=C(Nc1ccc(CN2CCN(c3nccc(Nc4cc(C5CC5)[nH]n4)n3)CC2)cc1)c1ccccc1OC(F)(F)F [Compound 8, N-(4-((4-(4-((5-cyclopropyl-1H-pyrazol-3-yl)amino)pyrimidin-2-yl)piperazin-1-yl)methyl)phenyl)-2-(trifluoromethoxy)benzamide] |  |  |  |  |  |  |  |  |  |  |  |  |  |  |  | 766 nM | 39 nM
